Values of other authors, collected in patent US20080185562A1, “Oxalate ester chemiluminescent light system” (Tianjin Dragon Chemiluminescent Tubes Co., Ltd., priority 2007, published 2008).

How the values were obtained:
[1] = system: mus
[2] = PEG value depends on molecular weight
[3] = system: rats; details: rat
[4] = at 122° C.

For OCCCO [1,3-propylene glycol], the “Toxicity (LD50 oral, mg/kg)” value [1] is given as 4,770 (mus) mg/kg and the “Flash point (° C./° F.)” value [2] is given as 79/174.
For CCCCOCCOCCOCCCC [dibutyl diethylene glycol ether], the “Toxicity (LD50 oral, mg/kg)” value [3] is given as 3,900 (rat) mg/kg, the “Flash point (° C./° F.)” value [2] is given as 117/243 and the “Vapor pressure (kPa)” value [4] is given as 1.33 at 122 °C kPa.
